Experimental data: patent US11230538B2, “Herbicides” (SYNGENTA PARTICIPATIONS AG, priority 2016, dated 2022)

Experiments:
Format in all cases: in vivo
[1] = system: Alopecurus myosuroides (ALOMY); assay: B1 Pre-emergence herbicidal activity; parameters: key: 5=total damage to plant; 0=no damage to plant; details: pre-emergence application, rate 1000 g/ha, evaluated after 13 days
Method: (§1) Seeds of a variety of test species were sown in standard soil in pots: Triticum aestivium (TRZAW), Avena fatua (AVEFA), Alopecurus myosuroides (ALOMY), Echinochloa crus-galli (ECHCG), Lolium perenne (LOLPE), Zea Mays (ZEAMX), Abutilon theophrasti (ABUTH), Amaranthus retroflexus (AMARE) and Setaria fabenr (SETFA). After cultivation for one day (pre-emergence) under controlled conditions in a glasshouse (at 24/16° C., day/night; 14 hours light; 65% humidity), the plants were sprayed with an aqueous spray solution derived from the formulation of the technical active ingredient in acetone I water (50:50) solution containing 0.5% Tween 20 (polyoxyethelyene sorbitan monolaurate, CAS RN 9005-64-5). The test plants were then grown in a glasshouse under controlled conditions (at 24/16° C., day/night; 14 hours light; 65% humidity) and watered twice daily. After 13 days, the test was evaluated (5=total damage to plant; 0=no damage to plant).

Avena fatua (AVEFA) [2] = assay: B1 Pre-emergence herbicidal activity; parameters: key: 5=total damage to plant; 0=no damage to plant; details: pre-emergence application, rate 1000 g/ha, evaluated after 13 days
Method: as §1

[3] = system: Triticum aestivium (TRZAW); assay: B1 Pre-emergence herbicidal activity; parameters: key: 5=total damage to plant; 0=no damage to plant; details: pre-emergence application, rate 1000 g/ha, evaluated after 13 days
Method: as §1

[4] = system: Echinochloa crus-galli (ECHCG); assay: B1 Pre-emergence herbicidal activity; parameters: key to Pre-emergence herbicidal activity, ECHCG (damage score 0-5): 5=total damage to plant; 0=no damage to plant; details: pre-emergence application, rate 1000 g/ha, evaluated after 13 days
Method: as §1

Lolium perenne (LOLPE) [5] = assay: B1 Pre-emergence herbicidal activity; parameters: key to Pre-emergence herbicidal activity, LOLPE (damage score 0-5): 5=total damage to plant; 0=no damage to plant; details: pre-emergence application, rate 1000 g/ha, evaluated after 13 days
Method: as §1

Setaria fabenr (SETFA) = assay: B1 Pre-emergence herbicidal activity; parameters: key to Pre-emergence herbicidal activity, SETFA (damage score 0-5): 5=total damage to plant; 0=no damage to plant; details: pre-emergence application, rate 1000 g/ha, evaluated after 13 days
Method: as §1

Avena fatua (AVEFA) [6] = assay: B2 Post-emergence herbicidal activity; details: post-emergence application, rate 1000 g/ha, evaluated after 13 days
Method: (§2) Seeds of a variety of test species were sown in standard soil in pots: Triticum aestivium (TRZAW), Avena fatua (AVEFA), Alopecurus myosuroides (ALOMY), Echinochloa crus-galli (ECHCG), Lolium perenne (LOLPE), Zea Mays (ZEAMX), Abutilon theophrasti (ABUTH), Amaranthus retroflexus (AMARE) and Setaria fabenri (SETFA). After 8 days cultivation (post-emergence) under controlled conditions in a glasshouse (at 24/16° C., day/night; 14 hours light; 65% humidity), the plants were sprayed with an aqueous spray solution derived from the formulation of the technical active ingredient in acetone I water (50:50) solution containing 0.5% Tween 20 (polyoxyethelyene sorbitan monolaurate, CAS RN 9005-64-5). The test plants were then grown in a glasshouse under controlled conditions (at 24/16° C., day/night; 14 hours light; 65% humidity) and watered twice daily. After 13 days, the test was evaluated (5=total damage to plant; 0=no damage to plant).

[7] = system: Echinochloa crus-galli (ECHCG); assay: B2 Post-emergence herbicidal activity; parameters: key to Post-emergence herbicidal activity, ECHCG (damage score 0-5): 5=total damage to plant; 0=no damage to plant; details: post-emergence application, rate 1000 g/ha, evaluated after 13 days
Method: as §2

Lolium perenne (LOLPE) [8] = assay: B2 Post-emergence herbicidal activity; details: post-emergence application, rate 1000 g/ha, evaluated after 13 days
Method: as §2

[9] = system: Alopecurus myosuroides (ALOMY); assay: B2 Post-emergence herbicidal activity; parameters: key: 5=total damage to plant; 0=no damage to plant; details: post-emergence application, rate 1000 g/ha, evaluated after 13 days
Method: as §2

[10] = system: Triticum aestivium (TRZAW); assay: B2 Post-emergence herbicidal activity; parameters: key: 5=total damage to plant; 0=no damage to plant; details: post-emergence application, rate 1000 g/ha, evaluated after 13 days
Method: as §2

Setaria fabenri (SETFA) = assay: B2 Post-emergence herbicidal activity; parameters: key: 5=total damage to plant; 0=no damage to plant; details: post-emergence application, rate 1000 g/ha, evaluated after 13 days
Method: as §2

O=C(CC1CCCCC1)Nc1ccc(-c2cncc(F)c2)nc1C(F)(F)F [Compound C19]
Pre-emergence herbicidal activity, ALOMY (damage score 0-5) [1]: 0 | Pre-emergence herbicidal activity, AVEFA (damage score 0-5) (Avena fatua (AVEFA) [2]): 2 | Pre-emergence herbicidal activity, TRAZW (damage score 0-5) [3]: 0 | Pre-emergence herbicidal activity, ECHCG (damage score 0-5) [4]: 3 | Pre-emergence herbicidal activity, LOLPE (damage score 0-5) (Lolium perenne (LOLPE) [5]): 0 | Pre-emergence herbicidal activity, SETFA (damage score 0-5) (Setaria fabenr (SETFA)): 5 | Post-emergence herbicidal activity, AVEFA (damage score 0-5) (Avena fatua (AVEFA) [6]): 3 | Post-emergence herbicidal activity, ECHCG (damage score 0-5) [7]: 4 | Post-emergence herbicidal activity, LOLPE (damage score 0-5) (Lolium perenne (LOLPE) [8]): 1 | Post-emergence herbicidal activity, ALOMY (damage score 0-5) [9]: 0 | Post-emergence herbicidal activity, TRAZW (damage score 0-5) [10]: 0

O=C(Nc1ccc(-c2cncc(F)c2)nc1C(F)(F)F)C1CCCCC1 [Compound C20]
Pre-emergence herbicidal activity, ALOMY (damage score 0-5) [1]: 0 | Pre-emergence herbicidal activity, AVEFA (damage score 0-5) (Avena fatua (AVEFA) [2]): 2 | Pre-emergence herbicidal activity, TRAZW (damage score 0-5) [3]: 0 | Pre-emergence herbicidal activity, ECHCG (damage score 0-5) [4]: 4 | Pre-emergence herbicidal activity, LOLPE (damage score 0-5) (Lolium perenne (LOLPE) [5]): 0 | Pre-emergence herbicidal activity, SETFA (damage score 0-5) (Setaria fabenr (SETFA)): 5 | Post-emergence herbicidal activity, AVEFA (damage score 0-5) (Avena fatua (AVEFA) [6]): 3 | Post-emergence herbicidal activity, ECHCG (damage score 0-5) [7]: 4 | Post-emergence herbicidal activity, LOLPE (damage score 0-5) (Lolium perenne (LOLPE) [8]): 2 | Post-emergence herbicidal activity, ALOMY (damage score 0-5) [9]: 0 | Post-emergence herbicidal activity, TRAZW (damage score 0-5) [10]: 0

O=C(Nc1ccc(-c2cncnc2)nc1C(F)(F)F)c1ccccc1 [Compound C17]
Pre-emergence herbicidal activity, ALOMY (damage score 0-5) [1]: 0 | Pre-emergence herbicidal activity, AVEFA (damage score 0-5) (Avena fatua (AVEFA) [2]): 3 | Pre-emergence herbicidal activity, TRAZW (damage score 0-5) [3]: 0 | Pre-emergence herbicidal activity, ECHCG (damage score 0-5) [4]: 4 | Pre-emergence herbicidal activity, LOLPE (damage score 0-5) (Lolium perenne (LOLPE) [5]): 1 | Pre-emergence herbicidal activity, SETFA (damage score 0-5) (Setaria fabenr (SETFA)): 5 | Post-emergence herbicidal activity, AVEFA (damage score 0-5) (Avena fatua (AVEFA) [6]): 3 | Post-emergence herbicidal activity, ECHCG (damage score 0-5) [7]: 5 | Post-emergence herbicidal activity, LOLPE (damage score 0-5) (Lolium perenne (LOLPE) [8]): 2 | Post-emergence herbicidal activity, ALOMY (damage score 0-5) [9]: 0 | Post-emergence herbicidal activity, TRAZW (damage score 0-5) [10]: 0

O=C(Nc1ccc(-c2cncc(F)c2)nc1C(F)(F)F)C1CCC1 [Compound C21]
Pre-emergence herbicidal activity, ALOMY (damage score 0-5) [1]: 0 | Pre-emergence herbicidal activity, AVEFA (damage score 0-5) (Avena fatua (AVEFA) [2]): 2 | Pre-emergence herbicidal activity, TRAZW (damage score 0-5) [3]: 0 | Pre-emergence herbicidal activity, ECHCG (damage score 0-5) [4]: 4 | Pre-emergence herbicidal activity, LOLPE (damage score 0-5) (Lolium perenne (LOLPE) [5]): 1 | Pre-emergence herbicidal activity, SETFA (damage score 0-5) (Setaria fabenr (SETFA)): 5 | Post-emergence herbicidal activity, AVEFA (damage score 0-5) (Avena fatua (AVEFA) [6]): 3 | Post-emergence herbicidal activity, ECHCG (damage score 0-5) [7]: 5 | Post-emergence herbicidal activity, LOLPE (damage score 0-5) (Lolium perenne (LOLPE) [8]): 2 | Post-emergence herbicidal activity, ALOMY (damage score 0-5) [9]: 0 | Post-emergence herbicidal activity, TRAZW (damage score 0-5) [10]: 0

CCN(CC)CCCN(C(=O)c1ccccc1)c1ccc(-c2cncc(F)c2)nc1C(F)(F)F [Compound C74]
Pre-emergence herbicidal activity, ALOMY (damage score 0-5) [1]: 1 | Pre-emergence herbicidal activity, AVEFA (damage score 0-5) (Avena fatua (AVEFA) [2]): 0 | Pre-emergence herbicidal activity, TRAZW (damage score 0-5) [3]: 0 | Pre-emergence herbicidal activity, ECHCG (damage score 0-5) [4]: 1 | Pre-emergence herbicidal activity, LOLPE (damage score 0-5) (Lolium perenne (LOLPE) [5]): 1 | Pre-emergence herbicidal activity, SETFA (damage score 0-5) (Setaria fabenr (SETFA)): 3 | Post-emergence herbicidal activity, ECHCG (damage score 0-5) [7]: 2 | Post-emergence herbicidal activity, ALOMY (damage score 0-5) [9]: 0 | Post-emergence herbicidal activity, SETFA (damage score 0-5) (Setaria fabenri (SETFA)): 3 | Post-emergence herbicidal activity, TRAZW (damage score 0-5) [10]: 0

COCC(=O)N(CC=C(C)C)c1ccc(-c2cncc(F)c2)nc1C(F)(F)F [Compound C106]
Pre-emergence herbicidal activity, ALOMY (damage score 0-5) [1]: 0 | Pre-emergence herbicidal activity, AVEFA (damage score 0-5) (Avena fatua (AVEFA) [2]): 2 | Pre-emergence herbicidal activity, TRAZW (damage score 0-5) [3]: 0 | Pre-emergence herbicidal activity, ECHCG (damage score 0-5) [4]: 3 | Pre-emergence herbicidal activity, LOLPE (damage score 0-5) (Lolium perenne (LOLPE) [5]): 1 | Pre-emergence herbicidal activity, SETFA (damage score 0-5) (Setaria fabenr (SETFA)): 4 | Post-emergence herbicidal activity, ECHCG (damage score 0-5) [7]: 4 | Post-emergence herbicidal activity, ALOMY (damage score 0-5) [9]: 0 | Post-emergence herbicidal activity, SETFA (damage score 0-5) (Setaria fabenri (SETFA)): 5 | Post-emergence herbicidal activity, TRAZW (damage score 0-5) [10]: 0

O=C(c1ccccc1)N(Cc1ccc(Cl)cc1)c1ccc(-c2cncc(F)c2)nc1C(F)(F)F [Compound C77]
Pre-emergence herbicidal activity, ALOMY (damage score 0-5) [1]: 0 | Pre-emergence herbicidal activity, AVEFA (damage score 0-5) (Avena fatua (AVEFA) [2]): 0 | Pre-emergence herbicidal activity, TRAZW (damage score 0-5) [3]: 0 | Pre-emergence herbicidal activity, ECHCG (damage score 0-5) [4]: 0 | Pre-emergence herbicidal activity, LOLPE (damage score 0-5) (Lolium perenne (LOLPE) [5]): 0 | Pre-emergence herbicidal activity, SETFA (damage score 0-5) (Setaria fabenr (SETFA)): 1 | Post-emergence herbicidal activity, ECHCG (damage score 0-5) [7]: 1 | Post-emergence herbicidal activity, ALOMY (damage score 0-5) [9]: 0 | Post-emergence herbicidal activity, SETFA (damage score 0-5) (Setaria fabenri (SETFA)): 2 | Post-emergence herbicidal activity, TRAZW (damage score 0-5) [10]: 0

CC(C)(C)COCN(C(=O)c1ccccc1)c1ccc(-c2cncc(F)c2)nc1C(F)(F)F [Compound C76]
Pre-emergence herbicidal activity, ALOMY (damage score 0-5) [1]: 0 | Pre-emergence herbicidal activity, AVEFA (damage score 0-5) (Avena fatua (AVEFA) [2]): 0 | Pre-emergence herbicidal activity, TRAZW (damage score 0-5) [3]: 0 | Pre-emergence herbicidal activity, ECHCG (damage score 0-5) [4]: 1 | Pre-emergence herbicidal activity, LOLPE (damage score 0-5) (Lolium perenne (LOLPE) [5]): 0 | Pre-emergence herbicidal activity, SETFA (damage score 0-5) (Setaria fabenr (SETFA)): 5 | Post-emergence herbicidal activity, ECHCG (damage score 0-5) [7]: 3 | Post-emergence herbicidal activity, ALOMY (damage score 0-5) [9]: 0 | Post-emergence herbicidal activity, SETFA (damage score 0-5) (Setaria fabenri (SETFA)): 4 | Post-emergence herbicidal activity, TRAZW (damage score 0-5) [10]: 1

CCC(=O)N(Cc1ccc(Cl)cc1)c1ccc(-c2cncc(F)c2)nc1C(F)(F)F [Compound C101]
Pre-emergence herbicidal activity, ALOMY (damage score 0-5) [1]: 0 | Pre-emergence herbicidal activity, AVEFA (damage score 0-5) (Avena fatua (AVEFA) [2]): 1 | Pre-emergence herbicidal activity, TRAZW (damage score 0-5) [3]: 0 | Pre-emergence herbicidal activity, ECHCG (damage score 0-5) [4]: 1 | Pre-emergence herbicidal activity, LOLPE (damage score 0-5) (Lolium perenne (LOLPE) [5]): 0 | Pre-emergence herbicidal activity, SETFA (damage score 0-5) (Setaria fabenr (SETFA)): 1 | Post-emergence herbicidal activity, ECHCG (damage score 0-5) [7]: 2 | Post-emergence herbicidal activity, ALOMY (damage score 0-5) [9]: 0 | Post-emergence herbicidal activity, SETFA (damage score 0-5) (Setaria fabenri (SETFA)): 2 | Post-emergence herbicidal activity, TRAZW (damage score 0-5) [10]: 0

CCC(=O)N(CCOC)c1ccc(-c2cncc(F)c2)nc1C(F)(F)F [Compound C96]
Pre-emergence herbicidal activity, ALOMY (damage score 0-5) [1]: 1 | Pre-emergence herbicidal activity, AVEFA (damage score 0-5) (Avena fatua (AVEFA) [2]): 1 | Pre-emergence herbicidal activity, TRAZW (damage score 0-5) [3]: 0 | Pre-emergence herbicidal activity, ECHCG (damage score 0-5) [4]: 3 | Pre-emergence herbicidal activity, LOLPE (damage score 0-5) (Lolium perenne (LOLPE) [5]): 0 | Pre-emergence herbicidal activity, SETFA (damage score 0-5) (Setaria fabenr (SETFA)): 5 | Post-emergence herbicidal activity, ECHCG (damage score 0-5) [7]: 3 | Post-emergence herbicidal activity, ALOMY (damage score 0-5) [9]: 0 | Post-emergence herbicidal activity, SETFA (damage score 0-5) (Setaria fabenri (SETFA)): 4 | Post-emergence herbicidal activity, TRAZW (damage score 0-5) [10]: 0
